Data published in patent US5879902A, “Diagnostic methods and kits for the evaluation of the sympathetic nervous system function” (Neuro-Biotech Inc., priority 1997, dated 1999).
Values joined by “and” are separate entries in the source; they are usually repeats but may differ in a detail not shown here. Equal values may be shown once. Where a name gives a salt, the structure may show the parent alone. One block for each molecule: values may come before it.

How the values were obtained:
Format in all cases: biochemical
[1] = molecular target: T1, dopamine-β-hydroxylase (Homo sapiens, UniProt P09172); experiment: Specific DBH activity in unpurified human serum (octopamine formed from tyramine, spectrophotometric); details: for % Control (DBH activity with the named component omitted) / Activity (DBH enzyme activity with the named component omitted): named ingredient omitted from reaction mixture, pool of 25 normal human serum; for Activity (DBH enzyme activity with the named component omitted): 37° C., mean ± SEM of at least 10 determinations; for decrease in enzyme activity on omission of the component from the incubation medium: component omitted; for saturation point (concentration saturating the enzyme activity): 20 μL human serum, tyramine varied at 10 mM ascorbate, ascorbate varied at 20 mM tyramine; for apparent Vmax: pH 5.0, Woolf's graphical method
T1 sequence (P09172 40-617 limits assumed): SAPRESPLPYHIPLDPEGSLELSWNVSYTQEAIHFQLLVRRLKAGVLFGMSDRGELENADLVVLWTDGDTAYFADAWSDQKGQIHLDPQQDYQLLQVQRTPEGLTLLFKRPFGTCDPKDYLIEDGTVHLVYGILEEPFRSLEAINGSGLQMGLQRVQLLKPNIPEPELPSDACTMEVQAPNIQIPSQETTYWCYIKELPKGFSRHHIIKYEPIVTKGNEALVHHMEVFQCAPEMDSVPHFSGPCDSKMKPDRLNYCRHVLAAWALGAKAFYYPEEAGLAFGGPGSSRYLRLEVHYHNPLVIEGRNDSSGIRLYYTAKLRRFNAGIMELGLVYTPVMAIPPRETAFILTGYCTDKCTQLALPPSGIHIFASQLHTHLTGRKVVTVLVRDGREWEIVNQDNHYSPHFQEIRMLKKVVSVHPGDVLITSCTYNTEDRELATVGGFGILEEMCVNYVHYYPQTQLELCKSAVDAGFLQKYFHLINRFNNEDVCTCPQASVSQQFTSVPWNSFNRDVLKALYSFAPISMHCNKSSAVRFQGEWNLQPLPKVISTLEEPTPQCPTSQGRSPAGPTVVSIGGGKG
Method: (§1) The kinetic parameters and biochemical properties were done on a pool of 25 subjects randomly distributed between males and females. An appropriate aliquot of serum was taken as enzyme source and diluted in ice-cold deionized water to a final volume of 400 μL, prior the preincubation period. For individual measurements of DBH enzyme activity, 20 μL of human serum was routinely used. For the ultrafiltration method, an aliquot of a pool of serum was passed through a DIAFLO™ Ultrafilter membrane, type YM100, and 40 μL of the ultrafiltrate was used to measure the enzyme activity (FIG. 9).
The specific DBH activity was determined by the method described by Roberge and Charbonneau (Roberge AG et al., Nutr Res, 1985, 5:57-63). The preincubation mixture contained 0.2M sodium acetate buffer (pH 5), 15 mM N-ethylmaleimide (NEM) and the enzyme source (from the serum sample) and was carried out at 25° C. for 10 min in an atmosphere of air using a metabolic shaker (Dubnoff). To the preincubated enzymatic source were added to a final volume of 1 mL: 10 mM fumarate, […], 2500 units catalase and 1 mM pargyline, as monoamide oxidasae inhibitor. Blanks and internal standards were set up in the same manner and contained 20 mM octopamine instead of the enzyme source. The incubation was started with 20 mM tyramine and conducted at 37° C. for 30 min in an atmosphere of air using a metabolic shaker (Dubnoff). The reaction was stopped on ice by adding 300 μL of 3M trichloroacetic acid to each tube and immediately centrifuged at 2500 g of at 4° C. for 10 min. The supernatant was decanted on a DOWEX™ 50×4-400 resin column and the acid eluted with 3M NH4 OH. The octopamine formed was derived to p-hydroxybenzaldehyde by periodate cleavage which was isolated by successive solvent extractions with ether and ammonia. The last aqueous phase was assayed by a dual-wavelenght spectrophotometer (333-360 nm). Specific activity was expressed […] of octopamine formed per mL per min. Recovery of octopamine added to the blank incubation mixture was 90±2%. L-tyramine was used as substrate and an aliquot of unpurified serum was taken as the enzyme source, usually 20 μL.
Apparent Michaelis constant (Km) and apparent maximum velocity (Vmax) were determined following the Woolf's graphical procedure and the usual method of Lineweaver and Burk. Statistical estimation related to enzyme kinetics was done according to Wilkinson.

[2] = molecular target: T1, dopamine-β-hydroxylase; experiment: DBH activity in ultrafiltrate of human serum (DIAFLO YM100 membrane); design: an aliquot of a pool of serum was passed through a DIAFLO™ Ultrafilter membrane, type YM100; from tissue; host or cells: ultrafiltrate of pooled human serum; details: with the named substance in the medium (15 mM NEM; copper up to 4 μM)
Method: as §1
(§2) The specific DBH activity was determined by the method described by Roberge and Charbonneau (Roberge AG et al., Nutr Res, 1985, 5:57-63). The preincubation mixture contained 0.2M sodium acetate buffer (pH 5), 15 mM N-ethylmaleimide (NEM) and the enzyme source (from the serum sample) and was carried out at 25° C. for 10 min in an atmosphere of air using a metabolic shaker (Dubnoff). To the preincubated enzymatic source were added to a final volume of 1 mL: 10 mM fumarate, […], 2500 units catalase and 1 mM pargyline, as monoamide oxidasae inhibitor. […]
The relationship between copper and NEM in the medium was studied in an aliquot of serum passed through a DIAFLO™ Ultrafilter membrane, type YM100, and the enzyme activity was measured in the ultrafiltrate. […]

[3] = molecular target: T1, dopamine-β-hydroxylase; experiment: DBH activity in human EDTA-treated blood
Method: (§3) The specific DBH activity was determined by the method described by Roberge and Charbonneau (Roberge AG et al., Nutr Res, 1985, 5:57-63). The preincubation mixture contained 0.2M sodium acetate buffer (pH 5), 15 mM N-ethylmaleimide (NEM) and the enzyme source (from the serum sample) and was carried out at 25° C. for 10 min in an atmosphere of air using a metabolic shaker (Dubnoff). To the preincubated enzymatic source were added to a final volume of 1 mL: 10 mM fumarate, […], 2500 units catalase and 1 mM pargyline, as monoamide oxidasae inhibitor. Blanks and internal standards were set up in the same manner and contained 20 mM octopamine instead of the enzyme source. The incubation was started with 20 mM tyramine and conducted at 37° C. for 30 min in an atmosphere of air using a metabolic shaker (Dubnoff). The reaction was stopped on ice by adding 300 μL of 3M trichloroacetic acid to each tube and immediately centrifuged at 2500 g of at 4° C. for 10 min. […]
(§4) Apparent Michaelis constant (Km) and apparent maximum velocity (Vmax) were determined following the Woolf's graphical procedure and the usual method of Lineweaver and Burk. […]
(§5) In FIG. 7A, the specific DBH enzyme activity was measured in human blood treated with EDTA, a copper chelator, in respect to pH dependence, to copper content added in the incubation medium and to kinetic parameters. […]

[4] = substrate: NCCc1ccc(O)cc1; experiment: DBH activity in human EDTA-treated blood; details: other: EDTA-treated blood, pH 5.8, Lineweaver and Burk
Method: as §3, §4, §5

[5] = substrate: NCCc1ccc(O)cc1; experiment: Specific DBH activity in unpurified human serum (octopamine formed from tyramine, spectrophotometric); details: other: human serum, pH 5.0, Woolf's graphical method
Method: as §1, §2, §4

Molecule: O=C(O)/C=C/C(=O)O [Furnarate, disodium fumarate]
% Control (DBH activity with the named component omitted) [1]: 88%
Activity (DBH enzyme activity with the named component omitted) [1]: 47.5 ± 1.00 nmol of octopamine formed per mL per min
increase in enzyme activity by addition of fumarate ([1]; whatever the concentrations used, up to 40 mM): 12%

Molecule: CCN1C(=O)C=CC1=O [N-ethylmaleimide (NEM), N-ethylmaleimide]
enzyme activity in ultrafiltrate [2]: 52±0.7 nmol of octopamine formed per mg of protein per hour
decrease in enzyme activity on omission of the component from the incubation medium ([1]; human serum): 36% and 66%
% Control (DBH activity with the named component omitted) [1]: 66%
Activity (DBH enzyme activity with the named component omitted) [1]: 35.6 ± 0.39 nmol of octopamine formed per mL per min

Molecule: O=C1O[C@H]([C@@H](O)CO)C(O)=C1O [ascorbate, ascorbic acid]
saturation point (concentration saturating the enzyme activity) [1]: 10 mM
decrease in enzyme activity on omission of the component from the incubation medium ([1]; human serum): 96%
Km value lower than for tyramine (fold) ([1]; human serum): 10 times
apparent Vmax ([1]; human serum): 56 nmol of octopamine formed per mL per min
% Control (DBH activity with the named component omitted) [1]: 4%
Activity (DBH enzyme activity with the named component omitted) [1]: 2.2 ± 0.19 nmol of octopamine formed per mL per min

effect of exogenous copper on EDTA inhibition ([3]; copper from 0 to 100 μM in the medium): progressively reversed
maximum decrease in enzyme activity ([1]; 20 μM exogenous copper, with 15 mM NEM in the medium): 90%
exogenous copper content above which enzyme activity decreases significantly ([1]; with 15 mM NEM in the medium): higher than 2 μM
exogenous copper concentration above which enzyme activity decreases significantly ([1]; without NEM in the medium): higher than 4 μM
Molecule: [Cu] [copper]
enzyme activity in ultrafiltrate [2]: 51±0.56 nmol of octopamine formed per mg of protein per hour

saturation point (concentration saturating the enzyme activity) [1]: 20 mM
Molecule: NCCc1ccc(O)cc1 [tyramine, L-tyramine]
Vmax ([3]; EDTA-treated blood, pH 5.8, Lineweaver and Burk): 38.5 nmol of octopamine formed per mL per min
apparent Vmax ([1]; human serum): 72 nmol of octopamine formed per mL per min

% Control (DBH activity with the named component omitted) [1]: 10%
B1: Catalase: beef liver catalase, added for peroxide degradation (protein, UniProt P00432 2-527, looked up)
Catalase: ADNRDPASDQMKHWKEQRAAQKPDVLTTGGGNPVGDKLNSLTVGPRGPLLVQDVVFTDEMAHFDRERIPERVVHAKGAGAFGYFEVTHDITRYSKAKVFEHIGKRTPIAVRFSTVAGESGSADTVRDPRGFAVKFYTEDGNWDLVGNNTPIFFIRDALLFPSFIHSQKRNPQTHLKDPDMVWDFWSLRPESLHQVSFLFSDRGIPDGHRHMNGYGSHTFKLVNANGEAVYCKFHYKTDQGIKNLSVEDAARLAHEDPDYGLRDLFNAIATGNYPSWTLYIQVMTFSEAEIFPFNPFDLTKVWPHGDYPLIPVGKLVLNRNPVNYFAEVEQLAFDPSNMPPGIEPSPDKMLQGRLFAYPDTHRHRLGPNYLQIPVNCPYRARVANYQRDGPMCMMDNQGGAPNYYPNSFSAPEHQPSALEHRTHFSGDVQRFNSANDDNVTQVRTFYLKVLNEEQRKRLCENIAGHLKDAQLFIQKKAVKNFSDVHPEYGSRIQALLDKYNEEKPKNAVHTYVQHGSHLSAREKANL
catalase amount up to which enzyme activity increases (then plateau till 4000 units) ([1]; human serum): 2000 units
Activity (DBH enzyme activity with the named component omitted) [1]: 5.6 ± 0.45 nmol of octopamine formed per mL per min

B2: dopamine-β-hydroxylase (Homo sapiens) (protein)
chain: SAPRESPLPYHIPLDPEGSLELSWNVSYTQEAIHFQLLVRRLKAGVLFGMSDRGELENADLVVLWTDGDTAYFADAWSDQKGQIHLDPQQDYQLLQVQRTPEGLTLLFKRPFGTCDPKDYLIEDGTVHLVYGILEEPFRSLEAINGSGLQMGLQRVQLLKPNIPEPELPSDACTMEVQAPNIQIPSQETTYWCYIKELPKGFSRHHIIKYEPIVTKGNEALVHHMEVFQCAPEMDSVPHFSGPCDSKMKPDRLNYCRHVLAAWALGAKAFYYPEEAGLAFGGPGSSRYLRLEVHYHNPLVIEGRNDSSGIRLYYTAKLRRFNAGIMELGLVYTPVMAIPPRETAFILTGYCTDKCTQLALPPSGIHIFASQLHTHLTGRKVVTVLVRDGREWEIVNQDNHYSPHFQEIRMLKKVVSVHPGDVLITSCTYNTEDRELATVGGFGILEEMCVNYVHYYPQTQLELCKSAVDAGFLQKYFHLINRFNNEDVCTCPQASVSQQFTSVPWNSFNRDVLKALYSFAPISMHCNKSSAVRFQGEWNLQPLPKVISTLEEPTPQCPTSQGRSPAGPTVVSIGGGKG
notes: from tissue; host or cells: human serum, unpurified (pool of 25 subjects; also individual subjects)
Km [4]: 2.4 mM
Km [5]: 8 mM
